Data from patent US20170156335A1, “SYSTEMS AND METHODS FOR RELEASING CHLORINE DIOXIDE” (priority 2014, published 2017).

Tested on: Raoultella (Klebsiella) terrigena (R. terrigena, ATCC 33257)
Assay: Anti-microbial activity test (AMA) in water bottles vs Raoultella terrigena
Assay type: cell-based
Details: AWT018; without SC

Structure (SMILES): CCOC(C)=O [EtOAc, Ethyl acetate]
- antimicrobial potential of formulation additives: no antimicrobial potential
